# US7250410B2, “Cyclic nucleotide phosphodiesterase inhibitors, preparation and uses thereof” (Via Pharmaceuticals, Inc., priority 2001, dated 2007)
# Test system: PDE4
# Assay: Inhibition of PDE4, radioenzymatic phosphodiesterase assay
# Format: biochemical, bovine
# Conditions: for PDE4 percentage inhibition at 10 μM: compound at 10 μM; for IC50: 1 μM cyclic AMP
# How it was run: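 PDE4 partially purified from bovine aortic media by 105,000 g centrifugation and anion-exchange chromatography with an NaCl gradient. Activity measured radioenzymatically: product nucleoside separated from nucleotides by anion exchange and counted by liquid scintillation.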
compound,measurement,setting,value
"CCN1C(=O)C(Cc2ccc(Cl)cc2Cl)N=C(c2ccccc2)c2cc(OC)c(OC)cc21 (stereo not shown) [IIco, 3-(2,4-dichlorobenzyl)-7,8-dimethoxy-1-ethyl-5-phenyl-1,3-dihydro-2H-1,4-benzodiazepin-2-one]",PDE4 percentage inhibition at 10 μM,"Table 3, formula (II)",34.3%
"O=C1CN=C(c2ccccc2)c2cc3c(cc2N1)OCCO3 [XXIIah, 10-phenyl-2,3,6,8-tetrahydro-7H-[1,4]dioxino[2,3-h][1,4]benzodiazepin-7-one]",PDE4 percentage inhibition at 10 μM,"Table 2, formula (XXII)",21.2%
"CCN1C(=O)CN=C(c2ccccc2)c2cc(OC)c(OC)cc21 [IIbd, 1-ethyl-7,8-dimethoxy-5-phenyl-1,3-dihydro-2H-1,4-benzodiazepin-2-one]",PDE4 percentage inhibition at 10 μM,"Table 3, formula (II)",34.3%
"CCN1C(=O)C(Cc2cccc(CN)c2)N=C(c2ccccc2)c2cc(OC)c(OC)cc21 (stereo not shown) [IIct, 3-[3-(aminomethyl)benzyl]-1-ethyl-7,8-dimethoxy-5-phenyl-1,3-dihydro-2H-1,4-benzodiazepin-2-one]",PDE4 percentage inhibition at 10 μM,"Table 3, formula (II)",18%
"COc1cc2c(cc1OC)N(C)C(=O)[C@H](Cc1ccccc1)N=C2c1ccccc1 [IIdj, (S)-3-benzyl-7,8-dimethoxy-1-methyl-5-phenyl-1,3-dihydro-2H-1,4-benzodiazepin-2-one]",PDE4 percentage inhibition at 10 μM,"Table 3, formula (II)",48.3%
"CCN1C(=O)C(Cc2ccccc2)N=C(c2ccccc2)c2cc(OC)c(OC)cc21 (stereo not shown) [IIcq, 3-benzyl-1-ethyl-7,8-dimethoxy-5-phenyl-1,3-dihydro-2H-1,4-benzodiazepin-2-one]",IC50,"Table 3, formula (II)",7.4 µM
"COc1cc2c(cc1OC)C(c1ccccc1)=NC(c1ccccc1)C(=O)N2 (stereo not shown) [XXIIaz, 7,8-dimethoxy-3,5-diphenyl-1,3-dihydro-2H-1,4-benzodiazepin-2-one]",IC50,"Table 2, formula (XXII)",9.5 µM
"COc1cc2c(cc1OC)N(C)C(=O)CN=C2c1ccc(N(C)C)cc1 [IIaj, 7,8-dimethoxy-5-(4-N,N-dimethylaminophenyl)-1-methyl-1,3-dihydro-2H-1,4-benzodiazepin-2-one]",PDE4 percentage inhibition at 10 μM,"Table 3, formula (II)",7.9%
"COc1cc2c(cc1OC)C(c1ccccc1)=NC(CC(C)C)C(=O)N2 (stereo not shown) [XXIIad, 7,8-dimethoxy-3-isobutyl-5-phenyl-1,3-dihydro-2H-1,4-benzodiazepin-2-one]",PDE4 percentage inhibition at 10 μM,"Table 2, formula (XXII)",14.9%
"COc1cc2c(cc1OC)N(C)C(=O)CN=C2c1ccc(C(C)=O)cc1 [IIai, 5-(4-acetylphenyl)-7,8-dimethoxy-1-methyl-1,3-dihydro-1,4-benzodiazepin-2-one]",PDE4 percentage inhibition at 10 μM,"Table 3, formula (II)",39%
"CCN1C(=O)C(Cc2cccc(Br)c2)N=C(c2ccccc2)c2cc(OC)c(OC)cc21 (stereo not shown) [IIcj, 3-(3-bromobenzyl)-1-ethyl-7,8-dimethoxy-5-phenyl-1,3-dihydro-2H-1,4-benzodiazepin-2-one]",IC50,"Table 3, formula (II)",3.76 µM
"COc1cc2c(cc1OC)N(CCO)C(=O)CN=C2c1ccccc1 [IIcx, 7,8-dimethoxy-1-(2-hydroxyethyl)-5-phenyl-1,3-dihydro-2H-1,4-benzodiazepin-2-one]",PDE4 percentage inhibition at 10 μM,"Table 3, formula (II)",9.9%
"COc1cc2c(cc1OC)C(c1ccccc1)=NC(c1ccccc1CNC(C)=O)C(=O)N2 (stereo not shown) [IIcf, N-[2-(7,8-dimethoxy-2-oxo-5-phenyl-2,3-dihydro-1H-1,4-benzodiazepin-3-yl)benzyl]acetamide]",PDE4 percentage inhibition at 10 μM,"Table 3, formula (II)",21%
"COc1cc2c(cc1OC)C(c1cccc3ccccc13)=NN(C)C(=O)C2 [IIIaa, 7,8-dimethoxy-3-methyl-1-(1-naphthyl)-3,5-dihydro-4H-2,3-benzodiazepin-4-one]",IC50,"Table 1, formula (III)",9.3 µM
"COC(=O)CCCCCCCCCCCN1N=C(c2ccccc2)c2cc(OC)c(OC)cc2CC1=O [IIIae, 7,8-dimethoxy-3-(12-methoxy-12-oxododecyl)-1-phenyl-3,5-dihydro-4H-2,3-benzodiazepin-4-one]",PDE4 percentage inhibition at 10 μM,"Table 1, formula (III)",19%
"COc1cc2c(cc1OC)N(C)C(=O)CN=C2c1cc2ccccc2o1 [IIag, 5-(2-benzo[b]furyl)-7,8-dimethoxy-1-methyl-1,3-dihydro-1,4-benzodiazepin-2-one]",IC50,"Table 3, formula (II)",4.8 µM
"CCN1C(=O)C(C(O)(c2ccccc2)c2ccccc2)N=C(c2ccccc2)c2cc(OC)c(OC)cc21 (stereo not shown) [IIby, 7,8-dimethoxy-3-(diphenylhydroxymethyl)-1-ethyl-5-phenyl-1,3-dihydro-2H-1,4-benzodiazepin-2-one]",IC50,"Table 3, formula (II)",8.2 µM
"[(7,8-dimethoxy-1-ethyl-2-oxo-2,3-dihydro-1H-1,4-benzodiazepin-3-yl)benz-2-yl]carboxamide [IIci]",IC50,"Table 3, formula (II)",1.45 µM
"O=C1CN=C(c2ccc(Br)cc2)c2ccc(Br)cc2N1 [XXIIab, 8-bromo-5-(4-bromophenyl)-1,3-dihydro-2H-1,4-benzodiazepin-2-one]",PDE4 percentage inhibition at 10 μM,"Table 2, formula (XXII)",10%
"COc1cc2c(cc1OC)C(c1ccc(-c3cccc(C)c3)cc1)=NN(C)C(=O)C2 [IIIar, 7,8-dimethoxy-3-methyl-1-[4-(3-methylphenyl)phenyl]-3,5-dihydro-4H-2,3-benzodiazepin-4-one]",IC50,"Table 1, formula (III)",2.9 µM
"CCN1C(=O)C(Cc2ccccc2OC)N=C(c2ccccc2)c2cc(OC)c(OC)cc21 (stereo not shown) [IIcr, 1-ethyl-7,8-dimethoxy-3-(2-methoxybenzyl)-5-phenyl-1,3-dihydro-2H-1,4-benzodiazepin-2-one]",IC50,"Table 3, formula (II)",2.7 µM
"CCOc1cc2c(cc1OCC)N(C)C(=O)CN=C2c1ccccc1 [IIbf, 7,8-diethoxy-1-methyl-5-phenyl-1,3-dihydro-2H-1,4-benzodiazepin-2-one]",IC50,"Table 3, formula (II)",0.86 µM
